This is an account of results in patent publication US20230192626A1 (Baylor College of Medicine, priority 2020, published 2023).

This experiment deals with T1, Human sEH (hsEH) (Homo sapiens, UniProt P34913).
T1 construct: purchased Cayman Chemicals
T1 sequence (P34913 1-555): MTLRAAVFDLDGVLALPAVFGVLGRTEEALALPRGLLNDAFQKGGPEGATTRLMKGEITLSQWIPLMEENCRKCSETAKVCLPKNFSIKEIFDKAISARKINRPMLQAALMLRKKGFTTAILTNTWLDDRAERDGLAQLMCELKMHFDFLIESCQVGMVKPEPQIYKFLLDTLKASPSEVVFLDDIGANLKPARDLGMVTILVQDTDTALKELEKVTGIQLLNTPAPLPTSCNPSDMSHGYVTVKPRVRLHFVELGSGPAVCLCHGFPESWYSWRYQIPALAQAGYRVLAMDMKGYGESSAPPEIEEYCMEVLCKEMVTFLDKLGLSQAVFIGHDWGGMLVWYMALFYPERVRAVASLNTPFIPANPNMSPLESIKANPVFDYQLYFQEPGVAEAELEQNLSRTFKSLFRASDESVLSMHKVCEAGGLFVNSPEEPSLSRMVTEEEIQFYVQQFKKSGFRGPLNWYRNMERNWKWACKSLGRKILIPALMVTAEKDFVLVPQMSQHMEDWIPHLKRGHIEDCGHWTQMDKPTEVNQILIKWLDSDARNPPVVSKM
Nature of the experiment: fluorescence-based sEH biochemical inhibition assay (PHOME substrate). Particulars: Table 1; hsEH 5 nM, PHOME 50 μM, 30° C. The protocol:
The benzimidazole-based compounds synthesized according to Example 1 were measured for activity. Using a fluorescence-based sEH biochemical inhibition assay, the IC50 value was measured for each benzimidazole-based compound. Human sEH (hsEH) and its substrate PHOME were purchased from Cayman Chemicals. IC50 values of hsEH inhibitors were determined by fluorescence. IC50 is defined as the concentration of the inhibitor that blocks 50% of the enzymatic activity. To a 96-well plate containing 10 μL enzyme (5 nM in water), 60 μL of H2O and 10 μL BisTris-HCl buffer (25 mM, pH 7.0) were added inhibitors with different concentrations. The mixture was incubated for 5 min at 30° C. prior to addition of 10 μL of PHOME substrate (50 μM). Fluorescence were measured at 30° C. with an excitation wavelength of 330 nm and an emission wavelength of 465 nm using a BioTek H1 plate reader. The IC50 values were calculated by non-linear regression fitting. The curve was generated from at least three separate runs, each in duplicates. Results are given as means and standard deviations. In Table 1, an IC50 value less than or equal to 1 μM is indicated as an “A.” an IC50 value from greater than 1 μM to less than 10 μM is indicated as a “B′” and an IC50 value of greater than or equal to 10 μM is indicated as a “C.”
Additional benzimidazole-based compounds as described herein were measured for activity according to the procedure outlined in Example 2. Briefly, using a fluorescence-based sEH biochemical inhibition assay, the IC50 value was measured for each benzimidazole-based compound.

pIC50: −log10 of the molar value. A value given as a limit tells only on which side of the number the result lay.

Usually pIC50 stands for the IC50 on a negative log10 scale, so that one unit is a factor of ten. High values mean a low IC50, low ones a high IC50.

`CCc1ccc(-c2nc3ccccc3[nH]2)cc1` [Compound 37, 2-(4-ethylphenyl)-1H-benzo[d]imidazole] showed a pIC50 of 5.00 to 6.00. In turn, `Cc1cc2nc(-c3ccccc3O)[nH]c2cc1C` [Compound 9, 2-(5,6-dimethyl-1H-benzo[d]imidazol-2-yl)phenol] gave a negative-log IC50 (pIC50) of at most 5.00. In turn, `Fc1cc2nc(-c3ccc(-c4ccncc4)cc3)[nH]c2cc1F` [Compound 59, 5,6-difluoro-2-(4-(pyridin-4-yl)phenyl)-1H-benzo[d]imidazole] gave a pIC50 of 5.00 to 6.00.

As for `Cc1cc2nc(Oc3ccc(OC(F)(F)F)cc3)[nH]c2cc1C` [Compound 12, 5,6-dimethyl-2-(4-(trifluoromethoxy)phenoxy)-1H-benzo[d]imidazole], the pIC50 was at most 5.00.

`COc1ccc(-c2nc3cc(F)c(F)cc3[nH]2)cc1` [Compound 46, 5,6-difluoro-2-(4-methoxyphenyl)-1H-benzo[d]imidazole] gave a pIC50 of at least 6.00. The same measure for `CCc1ccc(-c2nc3cc(C)c(C)cc3[nH]2)cc1` [Compound 5, 2-(4-ethylphenyl)-5,6-dimethyl-1H-benzo[d]imidazole]: at least 6.00; for `Cc1cc2nc(-c3ccc(C(F)(F)F)cc3)[nH]c2cc1C` [Compound 19, 5,6-dimethyl-2-(4-(trifluoromethyl)phenyl)-1H-benzo[d]imidazole]: at least 6.00. The molecule `Cc1cc2nc(-c3ccc(F)cn3)[nH]c2cc1C` [Compound 22, 2-(5-fluoropyridin-2-yl)-5,6-dimethyl-1H-benzo[d]imidazole] gave a negative-log IC50 (pIC50) of 5.00 to 6.00.

In turn, `Cc1cc2nc(Nc3ccc(C(C)(C)C)cc3)[nH]c2cc1C` [Compound 6, N-(4-(tert-butyl)phenyl)-5,6-dimethyl-1H-benzo[d]imidazol-2-amine] had a negative-log IC50 (pIC50) of 5.00 to 6.00. Molecule `Cc1cc2nc(-c3ccncc3)[nH]c2cc1C` [Compound 29, 5,6-dimethyl-2-(pyridin-4-yl)-1H-benzo[d]imidazole] had a negative-log IC50 (pIC50) of at most 5.00. `Cc1cc2nc(-c3cccnc3)[nH]c2cc1C` [Compound 30, 5,6-dimethyl-2-(pyridin-3-yl)-1H-benzo[d]imidazole] gave a pIC50 of at most 5.00. Under `Cc1cc2nc(C3CCN(C)CC3)[nH]c2cc1C` [Compound 18, 5,6-dimethyl-2-(1-methylpiperidin-4-yl)-1H-benzo[d]imidazole] stands at most 5.00; under `Cc1cc2nc(-c3ccc(C(C)(C)C)cc3)[nH]c2cc1C` [Compound 26, 2-(4-(tert-butyl)phenyl)-5,6-dimethyl-1H-benzo[d]imidazole], at least 6.00; under `N#Cc1ccc(-c2nc3cc(F)c(F)cc3[nH]2)cc1` [Compound 54, 4-(5,6-difluoro-1H-benzo[d]imidazol-2-yl)benzonitrile], at least 6.00. In turn, `N[C@@H](c1ccccc1)c1nc2cc(F)c(F)cc2[nH]1` [Compound 1, (S)-(5,6-difluoro-1λ^2-benzo[d]imidazol-2-yl)(phenyl)methanamine] showed a negative logarithm of the IC50 (pIC50) of at most 5.00.

For `CCc1ccc(-c2nc3cc(F)c(F)cc3[nH]2)cc1` [Compound 35, 2-(4-ethylphenyl)-5,6-difluoro-1H-benzo[d]imidazole imidazole], the pIC50 was at least 6.00. With `Fc1cc2nc(-c3ccc(-c4ccccc4)cc3)[nH]c2cc1F` [Compound 17, 2-([1,1′-biphenyl]-4-y)-5,6-difluoro-1H-benzo[d]imidazole], the pIC50 is 5.00 to 6.00. `Fc1cc2nc(-c3ccc(C(F)(F)F)cc3)[nH]c2cc1Cl` [Compound 43, 6-chloro-5-fluoro-2-(4-(trifluoromethyl)phenyl)-1H-benzo[d]imidazole] gave a pIC50 of at least 6.00. As to `c1ccc(-c2nc3ccccc3[nH]2)c(-c2nc3ccccc3[nH]2)c1` [Compound 15, 1,2-bis(1H-benzo[d]imidazol-2-yl)benzene], the pIC50 is at most 5.00.

In the case of `FC(F)(F)c1ccc(-c2nc3ccccc3[nH]2)cc1` [Compound 36, 2-(4-(trifluoromethyl)phenyl)-1H-benzo[d]imidazole], the negative logarithm of the IC50 (pIC50) is 5.00 to 6.00. Turning to `Cc1ccc2[nH]c(-c3ccc(C(F)(F)F)cc3)nc2c1C` [Compound 41, 4,5-dimethyl-2-(4-(trifluoromethyl)phenyl)-1H-benzo[d]imidazole], the negative logarithm of the IC50 (pIC50) was at least 6.00.

The molecule `Fc1ccc2[nH]c(-c3ccc(-c4ccccc4)cc3)nc2c1F` [Compound 49, 2-([1,1′-biphenyl]-4-yl)-4,5-difluoro-1H-benzo[d]imidazole] showed a pIC50 of at most 5.00. Turning to `Cc1cc2nc(Nc3ccc(OC(F)(F)F)cc3)[nH]c2cc1C` [Compound 4, 5,6-dimethyl-N-(4-(trifluoromethoxy)phenyl)-1H-benzo[d]imidazol-2-amine], the pIC50 is 5.00 to 6.00. `Fc1cc2nc(-c3ccc(Oc4ccccc4)cc3)[nH]c2cc1F` [Compound 53, 5,6-difluoro-2-(4-phenoxyphenyl)-1H-benzo[d]imidazole] showed a pIC50 of at least 6.00. The molecule `COc1ccc(Nc2nc3cc(C)c(C)cc3[nH]2)cc1OC` [Compound 7, N-(3,4-dimethoxyphenyl)-5,6-dimethyl-1H-benzo[d]imidazol-2-amine] had a pIC50 of 5.00 to 6.00. Under `CCCN(CCC)S(=O)(=O)c1ccc(-c2nc3cc(C)c(C)cc3[nH]2)cc1` [Compound 3, 4-(5,6-dimethyl-1H-benzo[d]imidazol-2-yl)-N,N-dipropylbenzenesulfonamide] stands 5.00 to 6.00; under `Fc1cc2nc(-c3ccoc3)[nH]c2cc1F` [Compound 32, 5,6-difluoro-2-(furan-3-yl)-1H-benzo[d]imidazole], at most 5.00. Regarding `Cc1cc2nc(-c3ccc(F)cc3F)[nH]c2cc1C` [Compound 10, 2-(2,4-difluorophenyl)-5,6-dimethyl-1H-benzo[d]imidazole], the negative-log IC50 (pIC50) is at most 5.00.

Molecule `Cc1ccc(-c2nc3cc(C)c(C)cc3[nH]2)cn1` [Compound 21, 5,6-dimethyl-2-(6-methylpyridin-3-yl)-1H-benzo[d]imidazole] showed a negative logarithm of the IC50 (pIC50) of 5.00 to 6.00. In turn, `Cc1cc2nc(-c3ccc(=O)[nH]c3)[nH]c2cc1C` [Compound 23, 5-(5,6-dimethyl-1H-benzo[d]imidazol-2-yl)pyridin-2(1H)-one] gave a pIC50 of at most 5.00. Consider `Cc1cc2nc(-c3ccccn3)[nH]c2cc1C` [Compound 25, 5,6-dimethyl-2-(pyridin-2-yl)-1H-benzo[d]imidazole], for which the negative-log IC50 (pIC50) is at most 5.00. The same measure for `Fc1ccc2[nH]c(-c3ccc(C(F)(F)F)cc3)nc2c1F` [Compound 48, 4,5-difluoro-2-(4-(trifluoromethyl)phenyl)-1H-benzo[d]imidazole]: at least 6.00. As for `COC(=O)c1ccc(-c2nc3cc(F)c(F)cc3[nH]2)cc1` [Compound 57, Methyl 4-(5,6-difluoro-1H-benzo[d]imidazol-2-yl)benzoate], the pIC50 is at most 5.00. In turn, `COc1cc(-c2nc3cc(C)c(C)cc3[nH]2)ccn1` [Compound 24, 2-(2-methoxypyridin-4-yl)-5,6-dimethyl-1H-benzo[d]imidazole] showed a negative-log IC50 (pIC50) of 5.00 to 6.00. In turn, `Cc1noc(-c2ccc(-c3nc4cc(F)c(F)cc4[nH]3)cc2)n1` [Compound 60, 5-(4-(5,6-difluoro-1H-benzo[d]imidazol-2-yl)phenyl)-3-methyl-1,2,4-oxadiazole] showed a pIC50 of at most 5.00. `O=C(Cc1ccccc1)Nc1nc2ccccc2[nH]1` [Compound 13, N-(1H-benzo[d]imidazol-2-yl)-2-phenylacetamide] showed a negative logarithm of the IC50 (pIC50) of at most 5.00. `CC(C)(C)c1ccc2[nH]c(-c3ccc(C(F)(F)F)cc3)nc2c1` [Compound 40, 5-(tert-butyl)-2-(4-(trifluoromethyl)phenyl)-1H-benzo[d]imidazole]: the pIC50 was 5.00 to 6.00. For `Oc1ccc(-c2nc3cc(F)c(F)cc3[nH]2)cc1` [Compound 33, 4-(5,6-difluoro-1H-benzo[d]imidazol-2-yl)phenol], the pIC50 is at most 5.00. `Cc1cc2nc(-c3ccc(-c4ccccc4)cc3)[nH]c2cc1C` [Compound 20, 2-([1,1′-biphenyl]-4-yl)-5,6-dimethyl-1H-benzo[d]imidazole] gave a pIC50 of at least 6.00. `Fc1cc2nc(-c3ccc(C(F)(F)F)cc3)[nH]c2cc1Br` [Compound 44, 6-bromo-5-fluoro-2-(4-(trifluoromethyl)phenyl)-1H-benzo[d]imidazole] gave a negative-log IC50 (pIC50) of at least 6.00.
